Patent publication US7452885B2, “Amino-5-(6-membered)heteroarylimidazolone compounds and the use thereof for β-secretase modulation” (Wyeth, priority 2005, dated 2008)
Where two headings read alike, the source gives them in different places.

Legend:
[1] = target: human BACE1 (Homo sapiens, UniProt P56817); experiment: Fluorescent kinetic assay, BACE-1 (Example 114); format: biochemical
Procedure: Evaluation of BACE-1 Binding Affinity of Test Compounds
Fluorescent Kinetic Assays
Dilution and mixing steps: total reaction volume: 100 μL
100 μM substrate dilution in 1×PBS was prepared, and
Fluorescence Readings: Readings at λex 320 nm and εem 420 nm are taken every 40 sec for 30 min at room temperature and the linear slope for substrate cleavage rate (vi) determined.

[2] = 10 nM human BACE1, 25 μM substrate WABC-6, 50 mM Na-Acetate pH 4.5, room temperature, read-out: BACE-1 (IC50 μM)

Sequence of human BACE1 (P56817 46-501): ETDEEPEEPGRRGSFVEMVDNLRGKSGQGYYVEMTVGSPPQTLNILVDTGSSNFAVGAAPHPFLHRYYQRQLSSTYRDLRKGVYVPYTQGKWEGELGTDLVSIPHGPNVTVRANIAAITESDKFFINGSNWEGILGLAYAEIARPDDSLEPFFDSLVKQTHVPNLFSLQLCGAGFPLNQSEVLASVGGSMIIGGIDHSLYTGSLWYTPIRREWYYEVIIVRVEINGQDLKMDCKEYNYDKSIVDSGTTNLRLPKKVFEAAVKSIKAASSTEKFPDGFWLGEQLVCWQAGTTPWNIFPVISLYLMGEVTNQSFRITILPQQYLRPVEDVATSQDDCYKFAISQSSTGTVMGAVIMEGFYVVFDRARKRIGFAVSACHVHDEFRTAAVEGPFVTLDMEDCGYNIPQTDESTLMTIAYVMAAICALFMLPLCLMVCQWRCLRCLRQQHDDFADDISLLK

| SMILES | IC50 [1, 2] | melting point | IC50 [1] |
| --- | --- | --- | --- |
| CN1C(=O)C(c2ccncc2)(c2cccc(O)c2)N=C1N (stereo not shown) [Example 51, 2-Amino-5-(3-hydroxyphenyl)-3-methyl-5-pyridin-4-yl-3,5-dihydro-4H-imidazol-4-one] | > 1 µM | 245 to 247 °C | – |
| COc1ncc(C2(c3cccc(-c4cccnc4F)c3)N=C(N)N(C)C2=O)c(OC)n1 (stereo not shown) [Example 98] | 0.11 to 1 µM | – | – |
| CCc1cc(C2(c3cccc(-c4cc(F)ccc4F)c3)N=C(N)N(C)C2=O)cc(C)n1 (stereo not shown) [Example 85] | 0.11 to 1 µM | 114 to 117 °C | – |
| CCc1cc(C2(c3cccc(-c4cccnc4)c3)N=C(N)N(C)C2=O)cc(C)n1 (stereo not shown) [Example 83] | 0.11 to 1 µM | 135 to 139 °C | – |
| Cc1cc(C2(c3cccc(-c4cc(F)ccc4F)c3)N=C(N)N(C)C2=O)ccn1 (stereo not shown) [Example 62] | – | 161 to 163 °C | 0.01 to 0.1 µM |
| Cc1cc(C2(c3cccc(-c4cccnc4)c3)N=C(N)N(C)C2=O)cc(C)n1 (stereo not shown) [Example 74] | – | 176 to 180 °C | 0.11 to 1 µM |
| CN1C(=O)C(c2ccncc2)(c2ccc(F)c(-c3cccnc3F)c2)N=C1N (stereo not shown) [Example 59] | – | 218 to 220 °C | 0.01 to 0.1 µM |
| CN1C(=O)C(c2ccncc2)(c2cccc(-c3cccc(F)c3F)c2)N=C1N (stereo not shown) [Example 40] | – | – | 0.01 to 0.1 µM |
| CCc1cc([C@@]2(c3cccc(-c4ccc(F)nc4)c3)N=C(N)N(C)C2=O)cc(CC)n1 [Example 108A, (5R)-2-Amino-5-(2,6-diethylpyridin-4-yl)-5-[3-(6-fluoropyridin-3-yl)phenyl]-3-methyl-3,5-dihydro-4H-imidazol-4-one] | > 1 µM | – | – |
| CN1C(=O)C(c2ccncc2)(c2cccc(-c3ccsc3)c2)N=C1N (stereo not shown) [Example 46] | – | 217 to 219 °C | – |
| CN1C(=O)C(c2ccncc2)(c2cccc(-c3cccc(F)c3)c2)N=C1N (stereo not shown) [Example 53] | – | – | 0.01 to 0.1 µM |
| CN1C(=O)C(c2ccncc2)(c2cccc(-c3cccc(C(F)(F)F)c3)c2)N=C1N (stereo not shown) [Example 32] | – | 234 °C | 0.11 to 1 µM |
| CN1C(=O)C(c2ccncc2)(c2cccc(-c3cc(F)cc(F)c3)c2)N=C1N (stereo not shown) [Example 31] | – | – | 0.01 to 0.1 µM |
| CN1C(=O)C(c2ccncc2)(c2cccc(-c3cccc(C(N)=O)c3)c2)N=C1N (stereo not shown) [Example 37] | – | 188 to 190 °C | 0.11 to 1 µM |
| CN1C(=O)C(c2ccccc2)(c2cccnc2)N=C1N (stereo not shown) [Example 28] | > 1 µM | 205 to 206 °C | – |
| CN1C(=O)C(c2ccncc2)(c2cccc(-c3cccc(CO)c3)c2)N=C1N (stereo not shown) [Example 36] | – | 177 to 179 °C | 0.11 to 1 µM |
| COc1ncc(C2(c3cccc(-c4cncnc4)c3)N=C(N)N(C)C2=O)c(OC)n1 (stereo not shown) [Example 97] | > 1 µM | – | – |
| CN1C(=O)C(c2ccncc2)(c2cccc(-c3ccoc3)c2)N=C1N (stereo not shown) [Example 45] | – | 113 to 115 °C | – |
| CCc1cc([C@]2(c3cccc(-c4cncnc4)c3)N=C(N)N(C)C2=O)cc(CC)n1 [Example 103B] | – | – | 0.01 to 0.1 µM |
| CN1C(=O)C(c2ccccc2)(c2ccncc2)N=C1N (stereo not shown) [Example 23, 2-Amino-3-methyl-5-phenyl-5-pyridin-4-yl-3,5-dihydro-4H-imidazol-4-one] | – | – | > 1 µM |
| CCc1cc([C@@]2(c3cccc(-c4cncnc4)c3)N=C(N)N(C)C2=O)cc(CC)n1 [Example 103A] | – | – | > 1 µM |
| Cc1cc(C2(c3cccc(-c4cnccn4)c3)N=C(N)N(C)C2=O)cc(C)n1 (stereo not shown) [Example 101] | 0.11 to 1 µM | – | – |
| CCc1cc(C2(c3ccc(F)c(-c4cnccc4F)c3)N=C(N)N(C)C2=O)cc(CC)n1 (stereo not shown) | – | 92 to 100 °C | – |
| COc1ccc(C2(c3ccnc(-c4ccccc4)c3)N=C(N)N(C)C2=O)cc1C (stereo not shown) [Example 109, 2-Amino-5-(4-methoxy-3-methylphenyl)-3-methyl-5-(2-phenylpyridin-4-yl)-3,5-dihydro-4H-imidazol-4-one] | 0.11 to 1 µM | – | – |
| CCc1cc(C2(c3cccc(-c4cncnc4)c3)N=C(N)N(C)C2=O)cc(CC)n1 (stereo not shown) [Example 91] | – | – | 0.01 to 0.1 µM |
| Cc1cc(C2(c3cccc(-c4cccnc4)c3)N=C(N)N(C)C2=O)ccn1 (stereo not shown) [Example 60] | – | – | 0.01 to 0.1 µM |
| CN1C(=O)[C@](c2ccncc2)(c2ccc(F)c(-c3cccnc3F)c2)N=C1N [Example 113A, (5R)-2-amino-5-[4-fluoro-3-(2-fluoropyridin-3-yl)phenyl]-3-methyl-5-pyridin-4-yl-3,5-dihydro-4H-imidazol-4-one] | > 1 µM | – | – |

Other lines, results leading:

| IC50 [1, 2] | melting point | IC50 [1] | SMILES |
| --- | --- | --- | --- |
| 0.11 to 1 µM | – | – | CCc1cc(C2(c3cccc(-c4ccc(F)nc4)c3)N=C(N)N(C)C2=O)cc(CC)n1 (stereo not shown) [Example 93] |
| – | 218 to 220 °C | 0.11 to 1 µM | CC(=O)c1cccc(-c2cccc(C3(c4ccncc4)N=C(N)N(C)C3=O)c2)c1 (stereo not shown) [Example 38] |
| – | 198 to 200 °C | 0.01 to 0.1 µM | COc1cncc(-c2cccc(C3(c4ccncc4)N=C(N)N(C)C3=O)c2)c1 (stereo not shown) [Example 33] |
| – | 200 to 202 °C | 0.11 to 1 µM | CN1C(=O)C(c2ccncc2)(c2cccc(OCC3CC3)c2)N=C1N (stereo not shown) [Example 71] |
| – | 173 to 175 °C | – | CCCOc1cccc(C2(c3ccncc3)N=C(N)N(C)C2=O)c1 (stereo not shown) [Example 52, 2-Amino-3-methyl-5-(3-propoxyphenyl)-5-pyridin-4-yl-3,5-dihydro-4H-imidazol-4-one] |
| 0.01 to 0.1 µM | 152 to 157 °C | – | CCc1cc(C2(c3cccc(-c4cccnc4)c3)N=C(N)N(C)C2=O)cc(CC)n1 (stereo not shown) [Example 90] |
| – | – | 0.01 to 0.1 µM | Cc1cc(C2(c3cccc(-c4cncnc4)c3)N=C(N)N(C)C2=O)ccn1 (stereo not shown) [Example 61] |
| 0.01 to 0.1 µM | 223 to 225 °C | – | CN1C(=O)C(c2cccc(-c3cccnc3)c2)(c2ccnc(Cl)c2)N=C1N (stereo not shown) [Example 89] |
| – | – | 0.01 to 0.1 µM | COc1cccc(-c2cccc(C3(c4ccncc4)N=C(N)N(C)C3=O)c2)c1 (stereo not shown) [Example 34] |
| – | 188 to 192 °C | – | CCc1cc(C2(c3cccc(-c4cc(F)ccc4F)c3)N=C(N)N(C)C2=O)ccn1 (stereo not shown) [Example 65] |
| – | – | 0.01 to 0.1 µM | CC(C)c1cc(C2(c3cccc(-c4cncnc4)c3)N=C(N)N(C)C2=O)ccn1 (stereo not shown) [Example 87] |
| – | – | 0.01 to 0.1 µM | CN1C(=O)C(c2ccncc2)(c2cccc(-c3cccnc3)c2)N=C1N (stereo not shown) [Example 44] |
| – | – | 0.11 to 1 µM | Cc1cc(C2(c3cccc(-c4cncnc4)c3)N=C(N)N(C)C2=O)cc(C)n1 (stereo not shown) [Example 75] |
| – | 181 to 186 °C | – | Cc1cc(C2(c3cccc(-c4cncnc4)c3)N=C(N)N(C)C2=O)cc[n+]1[O-] (stereo not shown) [Example 102] |
| – | – | 0.11 to 1 µM | CCc1cc(C2(c3cccc(-c4cncnc4)c3)N=C(N)N(C)C2=O)cc(C)n1 (stereo not shown) [Example 84] |
| 0.01 to 0.1 µM | – | – | CCc1cc([C@]2(c3cccc(-c4ccc(F)nc4)c3)N=C(N)N(C)C2=O)cc(CC)n1 [Example 108B, (5S)-2-Amino-5-(2,6-diethylpyridin-4-yl)-5-[3-(6-fluoropyridin-3-yl)phenyl]-3-methyl-3,5-dihydro-4H-imidazol-4-one] |
| – | – | 0.01 to 0.1 µM | CN1C(=O)C(c2ccncc2)(c2cccc(-c3cccnc3F)c2)N=C1N (stereo not shown) [Example 43] |
| – | – | 0.01 to 0.1 µM | CN1C(=O)C(c2ccncc2)(c2cccc(-c3cccc(C#N)c3)c2)N=C1N (stereo not shown) [Example 55] |
| > 1 µM | – | – | CN1C(=O)[C@@](c2ccncc2)(c2ccc(F)c(-c3cccnc3F)c2)N=C1N [Example 113B, (5S)-2-amino-5-[4-fluoro-3-(2-fluoropyridin-3-yl)phenyl]-3-methyl-5-pyridin-4-yl-3,5-dihydro-4H-imidazol-4-one] |
